Results: patent US10639376B2, “Pharmaceutical compositions having improved storage stability” (ALKERMES PHARMA IRELAND LIMITED, priority 2012, dated 2020)

Test: Solubility of Compound 1 in vehicles with various amounts of sorbitan monolaurate
Format: physicochemical
Settings: from trend of Compound 1 concentration as a function of pH at a given SML concentration; read-out: estimated pKa
Procedure: The solubility of Compound 1 was determined in vehicles containing 10 mM pH 7 phosphate buffer, 0.2% polysorbate 20 (PS), 0.8% saline, and various amounts of sorbitan monolaurate (SML). […] At a given SML concentration, the trend of Compound 1 concentration as a function of pH is consistent with an estimated pKa of ˜7. […] The degradation of dissolved Compound 1 was further followed in the drug vehicle containing 0.50% SML and 0.2% PS.

- pKa: ~7
SMILES: CCCCCCCCCCCC(=O)OCN1C(=O)CCc2ccc(OCCCCN3CCN(c4cccc(Cl)c4Cl)CC3)cc21 [Compound 1]
